According to publication PMC5104457, “ATP-Competitive MLKL Binders Have No Functional Impact on Necroptosis” (PLoS ONE, 2016):

Experiments:
N-terminal domain HSP90α = target: T1, N-terminal domain HSP90α (Homo sapiens, UniProt P07900); experiment: Differential scanning fluorimetry (thermal shift), Hsp90α N-terminal domain; format: binding; settings: 10 μM compound, Hsp90α catalytic domain
T1 construct: the N-terminal domain HSP90α; made in house
Description: To measure the thermal stabilization of the proteins upon compound binding we employed differential scanning fluorimetry (DSF). The kinase domain of RIPK1 and the N-terminal domain HSP90α were expressed and purified as previously described. The pseudokinase MLKL-1, RIPK1 and Hsp90 were melted at 1μM final concentrations in 25mM HEPES pH 8.0, 250mM NaCl and 2.5mM DTT. Compounds were added to a final concentration of 10 μ M with a final DMSO concentration of 5%. The complexes were incubated on ice for 30 minutes. Protein Thermal Shift dye (Life Technologies) was added to 1X. The fluorescence intensities were measured using a Quantstudio real-time PCR system (Life Technologies) with excitation at 470 nm and emission at 586 nm. The samples, measured in triplicate, were heated from 25 to 85°C with a heating rate of […].

[1] = target: T2, full length His-MBP-MLKL-3 (Homo sapiens, UniProt Q8NB16); experiment: Second harmonic generation (SHG) conformational assay, full length MLKL; settings: 10 μM compound, 20 minutes, mean ± SE
T2 construct: The full length MLKL was prepared in baculovirus; made in house; host or cells: baculovirus-infected sf9 insect cells
T2 sequence (Q8NB16 1-471): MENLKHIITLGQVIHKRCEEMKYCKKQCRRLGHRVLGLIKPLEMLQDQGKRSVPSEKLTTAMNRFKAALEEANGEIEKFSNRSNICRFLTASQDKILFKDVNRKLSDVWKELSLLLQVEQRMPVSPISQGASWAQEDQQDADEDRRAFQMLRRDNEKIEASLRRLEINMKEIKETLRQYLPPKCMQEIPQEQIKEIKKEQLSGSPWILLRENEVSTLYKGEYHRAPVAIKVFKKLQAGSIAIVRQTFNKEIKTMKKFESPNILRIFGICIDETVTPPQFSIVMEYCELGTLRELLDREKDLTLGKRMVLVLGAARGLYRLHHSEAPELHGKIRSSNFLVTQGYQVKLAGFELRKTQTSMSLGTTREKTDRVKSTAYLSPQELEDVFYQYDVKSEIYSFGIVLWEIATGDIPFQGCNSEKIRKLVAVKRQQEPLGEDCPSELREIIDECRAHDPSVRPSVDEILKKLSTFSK
Description: The full length MLKL was prepared in baculovirus using a bacmid DNA which was modified to include a Tev cleavable N-terminal His6 maltose binding protein (His-MBP) tag. His-MBP-MLKL-3 was expressed in baculovirus-infected sf9 insect cells grown in SF-900 II serum-free medium (Invitrogen). Cells were harvested by centrifugation 48 hours post-infection. The cells were resuspended in lysis buffer (50mM TRIS pH 8.0, 500mM NaCl, 10% glycerol, 1mM DTT and Roche EDTA-free protease inhibitor cocktail) and were lysed using a microfluidizer. The lysate was clarified by centrifugation at 20,000 x g for 1 hour at 4°C and the His-MBP-MLKL-3 was captured by batch binding to Nickel NTA resin overnight at 4°C. The resin was washed with buffer A (25mM TRIS pH 8.0, 250mM NaCl, 10% glycerol, 1mM DTT) and loaded into an XK column and washed until no non-specific unbound protein was detected. His-MBP-MLKL3 was eluted from the column using buffer A supplemented with 250mM imidazole pH 8.0 and analyzed by SDS-PAGE. […]
Experiments were performed on a Biodesy Delta System. […] The fundamental is directed to an arrangement of prisms integrated with the custom, glass-bottomed Biodesy Delta Read Plates, where it undergoes total internal reflection (TIR) to generate the evanescent field at the glass-lipid bilayer interface. […]

RIPK3 kinase domain = target: T3, RIPK3 kinase domain (Homo sapiens, UniProt Q9Y572); experiment: ATP-competitive probe displacement assay, RIPK3; format: binding
T3 construct: purchased DiscoverX
Description: Compound binding constants (KDs) were determined at DiscoverX using their KINOMEscan assay platform. This competition binding assay was previously described in Karaman et al. (2008)[18]. Briefly, full length MLKL was expressed in HEK-293 cells as a fusion with an NFκB DNA binding domain and subsequently tagged with a qPCR detection amplicon via interaction with NFκB. […] Twenty microliters of binding reactions were carried out in 384-well polypropylene plates for 1 hour at room temperature. Beads were subsequently washed and resuspended in elution buffer for 30 minutes at room temperature with shaking. The concentration of MLKL in the eluates was measured by qPCR and compound binding constants were calculated using a standard dose-response curve.
A similar approach was used to measure binding affinities for RIPK1 and RIPK3 kinase domains.

T3 sequence (Q9Y572 21-287 limits assumed): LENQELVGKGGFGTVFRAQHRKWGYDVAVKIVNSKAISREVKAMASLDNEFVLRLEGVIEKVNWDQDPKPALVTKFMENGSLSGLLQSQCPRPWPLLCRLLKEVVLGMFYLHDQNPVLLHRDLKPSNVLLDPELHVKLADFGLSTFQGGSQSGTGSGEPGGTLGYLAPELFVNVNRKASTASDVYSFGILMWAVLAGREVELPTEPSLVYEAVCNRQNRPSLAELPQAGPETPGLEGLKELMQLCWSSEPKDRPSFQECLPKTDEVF

SMILES | ΔTm at 10 µM (N-terminal domain HSP90α) [°C] | % change in SHG intensity, Full-length HisMBP-MLKL-3 [1] [%] | displacement of the ATP probe from / binding to RIPK3 (in words) (RIPK3 kinase domain) | Kd (RIPK3 kinase domain; average of duplicates) [µM]
CN(c1ccc(NC(=O)Nc2ccc(OC(F)(F)F)cc2)cc1)c1ccnc(Nc2cccc(S(N)(=O)=O)c2)n1 [cpd 1, reference compound] | 1.5 | 25.9 ± 1.6 | – | –
Nc1nccnc1C(=O)O[C@@H](C(=O)Nc1ccc(F)cc1)c1ccccc1 [cpd 4, 3-Amino-pyrazine-2-carboxylic acid (R)-(4-fluorophenylcarbamoyl)-phenyl-methyl ester] | – | – | without binding RIPK1 or RIPK3 | > 30
